According to ChEMBL document CHEMBL1649274, “Mutational upregulation of a resistance-nodulation-cell division-type multidrug efflux pump, SdeAB, upon exposure to a biocide, cetylpyridinium chloride, and antibiotic resistance in Serratia marcescens” (Antimicrob Agents Chemother, 2009):
≈ marks a conversion by molar mass, not a printed value.

Tests used:
Type in all cases: functional
Serratia marcescens [1] = experiment: Antimicrobial activity against cetylpyridinium chloride-sensitive Serratia marcescens 71 by broth dilution method
Serratia marcescens [2] = experiment: Antimicrobial activity against cetylpyridinium chloride-resistant Serratia marcescens 01 by broth dilution method
Serratia marcescens [3] = experiment: Antimicrobial activity against cetylpyridinium chloride-sensitive Serratia marcescens 79 by broth dilution method
Serratia marcescens [4] = experiment: microbe, parasite or virus in culture; settings: ATCC 13880
Description: Antimicrobial activity against Serratia marcescens ATCC 13880 by broth dilution method

Serratia marcescens [5] = experiment: Antimicrobial activity against Serratia marcescens ATCC 13880 harboring plasmid STV29 by broth dilution method
Serratia marcescens [6] = experiment: Antimicrobial activity against cetylpyridinium chloride-resistant Serratia marcescens 01 harboring plasmid STV29 by broth dilution method
Serratia marcescens [7] = experiment: Antimicrobial activity against cetylpyridinium chloride-sensitive Serratia marcescens 79 harboring plasmid STV29 expressing hasF gene by broth dilution method
Serratia marcescens [8] = experiment: Antimicrobial activity against cetylpyridinium chloride-sensitive Serratia marcescens 71 harboring plasmid STV29 by broth dilution method
Serratia marcescens [9] = experiment: Antimicrobial activity against cetylpyridinium chloride-resistant Serratia marcescens HMS011 by broth dilution method
Serratia marcescens [10] = experiment: Antimicrobial activity against cetylpyridinium chloride-resistant Serratia marcescens HMS011 harboring plasmid STV28 expressing sdeB gene by broth dilution method
Serratia marcescens [11] = experiment: Antimicrobial activity against cetylpyridinium chloride-sensitive Serratia marcescens 79 harboring plasmid STV29 by broth dilution method
Serratia marcescens [12] = experiment: Antimicrobial activity against cetylpyridinium chloride-resistant Serratia marcescens 011 by broth dilution method
Serratia marcescens [13] = experiment: Antimicrobial activity against cetylpyridinium chloride-resistant Serratia marcescens 011 harboring plasmid STV28 expressing sdeB gene by broth dilution method
Serratia marcescens [14] = experiment: Antimicrobial activity against cetylpyridinium chloride-sensitive Serratia marcescens 71 harboring plasmid STV29 expressing hasF gene by broth dilution method

Structure (SMILES)	MIC (Serratia marcescens [1]) [µg/mL]	MIC (Serratia marcescens [2]) [µg/mL]	MIC (Serratia marcescens [3]) [µg/mL]	MIC (Serratia marcescens [4]) [µg/mL]	MIC (Serratia marcescens [5]) [µg/mL]	MIC (Serratia marcescens [6]) [µg/mL]	MIC (Serratia marcescens [7]) [µg/mL]	MIC (Serratia marcescens [8]) [µg/mL]	MIC (Serratia marcescens [9]) [µg/mL]	MIC (Serratia marcescens [10]) [µg/mL]	MIC (Serratia marcescens [11]) [µg/mL]	MIC (Serratia marcescens [12]) [µg/mL]	MIC (Serratia marcescens [13]) [µg/mL]	MIC (Serratia marcescens [14]) [µg/mL]
N=C(NCCCCCCNC(=N)NC(=N)Nc1ccc(Cl)cc1)NC(=N)Nc1ccc(Cl)cc1.O=C(O)[C@H](O)[C@@H](O)[C@H](O)[C@H](O)CO	3.13	100	3.13	25										
CCCCCCCCCCCC[n+]1ccccc1.[I-]	12.5	100	6.25	100										
CC1(C)S[C@@H]2[C@H](NC(=O)[C@H](N)c3ccccc3)C(=O)N2[C@H]1C(=O)O [AMPICILLIN]	6.25 (≈ 17.9 µM)	6.25 (≈ 17.9 µM)	6.25 (≈ 17.9 µM)	100 (≈ 286 µM)										
CC1(C)S[C@@H]2[C@H](NC(=O)C(C(=O)O)c3ccccc3)C(=O)N2[C@H]1C(=O)O (some centres undefined) [CARBENICILLIN]	3.13 (≈ 8.27 µM)	3.13 (≈ 8.27 µM)	3.13 (≈ 8.27 µM)	6.25 (≈ 16.5 µM)	6.25 (≈ 16.5 µM)	3.13 (≈ 8.27 µM)	3.13 (≈ 8.27 µM)	3.13 (≈ 8.27 µM)	6.25 (≈ 16.5 µM)	6.25 (≈ 16.5 µM)	3.13 (≈ 8.27 µM)	3.13 (≈ 8.27 µM)	3.13 (≈ 8.27 µM)	3.13 (≈ 8.27 µM)
O=C(N[C@H](CO)[C@H](O)c1ccc([N+](=O)[O-])cc1)C(Cl)Cl [CHLORAMPHENICOL]	3.13 (≈ 9.69 µM)	100 (≈ 309 µM)	3.13 (≈ 9.69 µM)	12.5 (≈ 38.7 µM)	> 400	> 400	> 400	> 400	12.5 (≈ 38.7 µM)	> 400	> 400	25 (≈ 77.4 µM)	> 400	> 400
CCn1cc(C(=O)O)c(=O)c2cc(F)c(N3CCNCC3)nc21 [ENOXACIN]	0.1 (≈ 0.312 µM)	3.13 (≈ 9.77 µM)	0.1 (≈ 0.312 µM)	0.2 (≈ 0.624 µM)										
NC[C@H]1O[C@H](O[C@H]2[C@H](O)[C@@H](O[C@H]3O[C@H](CO)[C@@H](O)[C@H](N)[C@H]3O)[C@H](N)C[C@@H]2N)[C@H](O)[C@@H](O)[C@@H]1O [KANAMYCIN]	> 400	1.56 (≈ 3.22 µM)	> 400	1.56 (≈ 3.22 µM)	1.56 (≈ 3.22 µM)	1.56 (≈ 3.22 µM)			1.56 (≈ 3.22 µM)	1.56 (≈ 3.22 µM)		1.56 (≈ 3.22 µM)	1.56 (≈ 3.22 µM)	
